Experiment [1] has as its system THP-1. Kind of experiment: Cytotoxicity against human THP-1 cells incubated for 72 hrs by alamar blue cell viability assay. It counts as functional, cell-based. The following applies: THP-1, 72 h. A general note: Alamar Blue is a resazurin reagent that responds to reducing activity.
In experiment [2] the test system is Trypanosoma brucei. The experiment is described as follows: Antitrypanosomal activity against bloodstream trypomastigote form of Trypanosoma brucei Lister 427 assessed as reduction in parasite growth incubated for 72 hrs by alamar blue dye based fluorescence analysis. In kind it is functional, organism-based. As to conditions: Lister 427, 72 h.
The subject of experiment [3] is HeLa. Kind of experiment: Cytotoxicity against human HeLa cells incubated for 72 hrs by alamar blue cell viability assay. In kind it is functional, cell-based.
The test system of experiment [4] is Trypanosoma brucei. The experiment is described as follows: Induction of morphological change in bloodstream trypomastigote form of Trypanosoma brucei Lister 427 assessed as reduction in cytokinesis at EC10 incubated for 48 hrs by DAPI staining based immunofluorescence analysis. In kind it is functional, organism-based.
For experiment [5], the system named is Trypanosoma cruzi. The experiment is described as follows: Antitrypanosomal activity against epimastigote form of Trypanosoma cruzi CL Brener assessed as fold change in reduction of parasite growth incubated for 72 hrs by alamar blue dye based fluorescence analysis relative to miltefosine. It counts as functional.
Experiment [6] relates to Leishmania donovani. The experiment is described as follows: Antileishmanial activity against Leishmania donovani amastigotes infected in human THP-1 cells assessed as reduction in parasite growth incubated for 72 hrs by alamar blue dye based fluorescence analysis. It counts as functional, organism-based. As to conditions: THP-1, 72 h.
In experiment [7] the test system is Leishmania major. The experiment is described as follows: Antileishmanial activity against promastigote form of Leishmania major Freidlin assessed as morphological change at EC10 incubated for 48 hrs by DAPI staining based immunofluorescence analysis. It counts as functional, organism-based.
Experiment [8] concerns Trypanosoma brucei. The experiment is described as follows: Induction of morphological change in bloodstream trypomastigote form of Trypanosoma brucei Lister 427 assessed as appearance of swollen cells at EC10 incubated for 48 hrs by DAPI staining based immunofluorescence analysis. In kind it is functional, organism-based.
Experiment [9] in a line: Selectivity ratio of EC50 for antileishmanial activity against Leishmania donovani amastigotes infected in human THP-1 cells to EC50 for cytotoxicity against human THP-1 cells. In kind it is functional.
Experiment [10] deals with Leishmania donovani. The experiment is described as follows: Antileishmanial activity against promastigote form of Leishmania donovani assessed as reduction in parasite growth incubated for 72 hrs by alamar blue dye based fluorescence analysis. It counts as functional, organism-based.
Experiment [11] has as its system Trypanosoma cruzi. The experiment is described as follows: Antitrypanosomal activity against epimastigote form of Trypanosoma cruzi CL Brener assessed as reduction in parasite growth incubated for 72 hrs by alamar blue dye based fluorescence analysis. It counts as functional, organism-based.
The subject of experiment [12] is Leishmania donovani. Kind of experiment: Antileishmanial activity against Leishmania donovani axenic amastigotes assessed as reduction in parasite growth incubated for 72 hrs by alamar blue dye based fluorescence analysis. In kind it is functional, organism-based.
Experiment [13] has as its system Leishmania major. Kind of experiment: Antileishmanial activity against promastigote form of Leishmania major Freidlin assessed as reduction in parasite growth incubated for 72 hrs by alamar blue dye based fluorescence analysis. In kind it is functional, organism-based.

Broadly, the EC50 is the concentration needed to bring the measured effect to its halfway point.

The source made the active and inactive calls. The rule behind the calls is not given here.

For the compound `COC(=O)[C@@H]1CCCN1C(=O)CCSCc1ccccc1`, the EC50 in experiment [1] was more than 250 µM; in [2] it was 6.9 µM; in experiment [3], more than 250 µM; in [6] it was 4.98 µM; in experiment [10], 1.18 µM; in experiment [11], 5.1 µM. Besides, the values for the EC50 in [12] and in [13] were 0.91 µM and 1.24 µM, respectively. Further, the outcome in experiment [4] and in experiment [8] was Active. Also, the “fold change (FC)” value in experiment [5] stood at 3. Moreover, the result in experiment [7] was inactive. Besides, the “Ratio EC50” value in experiment [9] came out at 50.

The record behind these values is ChEMBL document CHEMBL5584269 (Bioorg Med Chem Lett, 2024).
